Data on 9 compounds can be found in ChEMBL document CHEMBL5226302, “Small-Molecule Inhibitors Targeting the Canonical WNT Signaling Pathway for the Treatment of Cancer” (J Med Chem, 2021).

Each structure is given as a SMILES string. Values after ≈ are worked out from the molar mass of the structure shown.

Data set [1] concerns COLO 320. Description: Antitumor activity against human COLO 320 cells xenografted mouse model assessed as tumor growth inhibition at 300 mg/kg relative to control. It is filed as functional. To be noted: read-out: TGI. A general note: Xenograft models place foreign cells or tissue in a host animal.
A short description of data set [2]: Oral bioavailability in rat at 30 mg/kg. It is filed as ADME, organism-based. The note with it: in vivo.
For data set [3], the system named is COLO 320. Kind of data set: Antiproliferative activity against human COLO 320 assessed as growth inhibition measured after 24 hrs. It is filed as functional.
A short description of data set [4]: Solubility of compound at pH 7.4. It is filed as physicochemical. To be noted: buffer.
The subject of data set [5] is LNCaP C4-2B. Description: Antiproliferative activity against human LNCaP C4-2B cells assessed as inhibition of cell growth by Celltiter-Glo assay. It is filed as functional, cell-based. (In ATP-based viability assays light output follows the ATP content of the culture.)
The target in data set [6] is Catenin beta-1/Transcription factor 7 (Homo sapiens, UniProt P35222+P36402). Kind of data set: Inhibition of beta catenin/TCF (unknown origin) by immunoprecipitation method. It is filed as protein assay.
Catenin beta-1/Transcription factor 7, sequence (P36402 whole entry, one chain of several): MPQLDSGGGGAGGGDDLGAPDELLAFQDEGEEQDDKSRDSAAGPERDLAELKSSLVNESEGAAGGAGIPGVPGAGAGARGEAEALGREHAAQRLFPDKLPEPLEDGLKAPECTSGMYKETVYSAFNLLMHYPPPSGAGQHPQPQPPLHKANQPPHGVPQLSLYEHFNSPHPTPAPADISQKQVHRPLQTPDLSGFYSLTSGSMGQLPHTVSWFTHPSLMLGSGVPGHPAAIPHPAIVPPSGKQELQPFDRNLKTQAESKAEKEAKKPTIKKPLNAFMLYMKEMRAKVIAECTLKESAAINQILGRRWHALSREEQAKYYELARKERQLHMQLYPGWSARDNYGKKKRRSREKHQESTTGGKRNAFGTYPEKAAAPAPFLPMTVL
A short description of data set [7]: Oral bioavailability in rat at 5 mg/kg. The note with it: in vivo. It is filed as ADME, organism-based.
The nature of data set [8]: Inhibition of beta catenin/APC (unknown origin). Set-up: species or system Homo sapiens.
Data set [9] in a line: Inhibition of Wnt2 signalling in human SW480 cells assessed as reduction in cyclin D1 expression […] measured after 24 hrs by western blot analysis. It is filed as cell-based. The note with it: SW480, 24 h. Background: In western blotting, separated proteins are transferred to a membrane and probed.
The target of data set [10] is T1, Catenin beta-1 (Homo sapiens, UniProt P35222).
T1 sequence (P35222 whole entry): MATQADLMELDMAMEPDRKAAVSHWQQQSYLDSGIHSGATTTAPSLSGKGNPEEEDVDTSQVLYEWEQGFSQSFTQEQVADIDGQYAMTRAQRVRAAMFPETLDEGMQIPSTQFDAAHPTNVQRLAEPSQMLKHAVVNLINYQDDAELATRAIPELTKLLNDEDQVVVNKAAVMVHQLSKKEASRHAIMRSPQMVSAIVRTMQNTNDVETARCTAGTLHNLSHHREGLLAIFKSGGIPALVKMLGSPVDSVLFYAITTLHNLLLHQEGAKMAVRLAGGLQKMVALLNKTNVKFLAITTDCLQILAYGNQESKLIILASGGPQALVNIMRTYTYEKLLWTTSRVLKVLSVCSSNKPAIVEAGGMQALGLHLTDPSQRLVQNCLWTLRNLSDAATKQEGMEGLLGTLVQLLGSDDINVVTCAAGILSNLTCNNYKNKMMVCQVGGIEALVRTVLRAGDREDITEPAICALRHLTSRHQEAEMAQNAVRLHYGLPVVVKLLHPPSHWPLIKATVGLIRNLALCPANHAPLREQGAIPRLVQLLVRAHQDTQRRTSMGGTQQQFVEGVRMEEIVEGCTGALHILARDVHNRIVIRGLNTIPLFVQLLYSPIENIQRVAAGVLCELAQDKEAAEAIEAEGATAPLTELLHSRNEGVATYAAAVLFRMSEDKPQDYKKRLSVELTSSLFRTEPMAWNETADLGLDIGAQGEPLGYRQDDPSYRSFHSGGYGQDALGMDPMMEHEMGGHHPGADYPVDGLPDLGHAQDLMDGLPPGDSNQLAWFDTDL
Description: Binding affinity to beta catenin (unknown origin) assessed as dissociation constant by VP-ITC method.

For data set [11], the system named is MG-63. Description: Antitumor activity against human MG-63 cells xenografted in osteosarcoma mouse model assessed as tumor growth inhibition at 5 mg/kg relative to control. It is filed as functional. To be noted: read-out: TGI.
The subject of data set [12] is HEK293. Description: Antitumor activity against human HEK293 cells xenografted in […] assessed as tumor growth inhibition at 10 mg/kg relative to control. It is filed as functional. To be noted: read-out: TGI.
Data set [13] can be described thus: Oral bioavailability in mouse at 10 mg/kg. It is filed as ADME, organism-based. To be noted: in vivo.

By bioavailability is commonly meant dose-corrected exposure relative to a reference, in per cent. A lower bioavailability goes with little systemic uptake. As for `O=c1[nH]c(N2CCC3(CC2)CN(CCO)c2cc(F)cc(F)c23)nc2c1CCCC2`, the inhibition in vivo at 300 mg/kg in [1] came out at 52%. This compound yielded a bioavailability in data set [2] of 60%. Broadly, the GI50 is the concentration giving 50% growth inhibition. Take `C[C@@H]1CN(c2cc(F)c3c(c2)N(C)C(=O)C32CCN(c3nc4c(c(=O)[nH]3)CCCN4C)CC2)C[C@H](C)O1`: the GI50 in data set [3] turned out to be 0.23 µM. One may read the solubility as the concentration that dissolves in the medium under given conditions. `COc1ccccc1N1CCN(c2nc3c(c(=O)[nH]2)CCCC3)CC1` yielded a solubility in data set [4] of 72 µg/mL (≈ 211 µM). The term IC50 denotes the concentration that inhibits the measured activity by half. Take `COc1ccc([C@@H](C)N2CC(=O)N[C@H](C)C(=O)CN(CCc3ccccc3Oc3ccccc3)CC(=O)N(c3cc(OC)cc(OC)c3)CC(=O)N(CCCOC(C)C)CC(=O)N([C@H](C)c3ccc(OC)cc3)CC2=O)cc1`: the IC50 in data set [5] was 0.195 µM; in data set [6], 10 µM. For `COCCNc1cc(C)c(-c2ccc(-c3nc4c(CO)cccc4c(=O)[nH]3)cc2)cn1`, the bioavailability in data set [7] came to 18%. On to `CCOC(=O)CC[C@H](NC(=O)[C@H](CC(=O)OCC)NC(=O)[C@H](Cc1ccc2ccccc2c1)NC(=O)Cc1cc2cc(Cl)ccc2[nH]1)C(=O)OC`, for which the results for the IC50 in [8] and in data set [9] were 28.7 µM and 10.8 µM, respectively. As a reminder, the Kd is the free concentration of one partner at which half of the binding sites on the other are occupied at equilibrium, for simple one-to-one binding. With `CC[C@H](C)[C@H]1NC(=O)[C@](C)(NC(=O)[C@H](CCC(N)=O)NC(=O)[C@@H]2CCCN2C(=O)[C@H](CC(N)=O)NC(=O)[C@H](CCC(=O)O)NC(=O)CCNC(=S)Nc2ccc3c(c2)C(=O)OC32c3ccc(O)cc3Oc3cc(O)ccc32)CCC/C=C/CCC[C@](C)(C(=O)N[C@@H](Cc2cnc[nH]2)C(=O)N[C@H](C(=O)N[C@@H](CCC(N)=O)C(=O)N[C@@H](CCCNC(=N)N)C(=O)N[C@H](C(=O)N[C@@H](CCSC)C(N)=O)C(C)C)C(C)C)NC(=O)[C@H](CC(=O)O)NC(=O)[C@H](C(C)(C)C)NC1=O`, in data set [10], the Kd was found to be 0.06 µM. For `O=C(Nc1cccc2cccnc12)c1ccc(N2C(=O)[C@@H]3[C@H](C2=O)[C@@H]2C=C[C@H]3C2)cc1`, the inhibition in vivo at 5 mg/kg in data set [11] turned out to be 71%. Take `Cn1c(=O)c2c(ncn2CC(=O)Nc2ccc(-c3ccccc3)nn2)n(C)c1=O` [ETC-159]: in data set [12], the inhibition in vivo at 10 mg/kg is 94%. Moreover, in [13], the bioavailability is 100%.
